From patent publication US8846705B2, “Diaminopyrimidines as P2X3 and P2X2/3 antagonists” (Roche Palo Alto LLC, priority 2004, dated 2014)
Counter-ions that a name gives are not always drawn.

Columns and labels:
[1] = molecular target: T1, rat P2X3 receptor (Rattus norvegicus, UniProt P49654); test: cell-based
T1 sequence (P49654 1-397): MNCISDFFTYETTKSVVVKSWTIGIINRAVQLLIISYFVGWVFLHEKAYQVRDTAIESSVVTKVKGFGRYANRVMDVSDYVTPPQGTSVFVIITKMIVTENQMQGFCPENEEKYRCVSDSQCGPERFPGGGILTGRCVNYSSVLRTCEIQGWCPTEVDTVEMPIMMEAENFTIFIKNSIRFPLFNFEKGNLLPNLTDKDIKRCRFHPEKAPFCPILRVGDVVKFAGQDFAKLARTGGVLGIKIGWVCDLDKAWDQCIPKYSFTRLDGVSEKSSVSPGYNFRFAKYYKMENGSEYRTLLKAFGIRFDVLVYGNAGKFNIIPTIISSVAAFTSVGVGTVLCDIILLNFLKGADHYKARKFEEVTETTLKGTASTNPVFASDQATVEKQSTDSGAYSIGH
Experimental: P2X3/P2X2/3 FLIPR (Fluorometric Imaging Plate Reader) Assay
CHO-K1 cells were transfected with cloned rat P2X3 or human P2X2/3 receptor subunits and passaged in flasks. 18-24 hours before the FLIPR experiment, cells were released from their flasks, centrifuged, and resuspended in nutrient medium at 2.5×10^5 cells/ml. The cells were aliquoted into black-walled 96-well plates at a density of 50,000 cells/well and incubated overnight in 5% CO2 at 37° C. On the day of the experiment, cells were washed in FLIPR buffer (calcium- and magnesium-free Hank's balanced salt solution, 10 mM HEPES, 2 mM CaCl2, 2.5 mM probenecid; FB). […]
Test compounds (dissolved in DMSO at 10 mM and serially diluted with FB) or vehicle were added to each well (25 μl of a 4× solution) and allowed to equilibrate for 20 minutes at room temperature. The plates were then placed in the FLIPR and a baseline fluorescence measurement (excitation at 488 nm and emission at 510-570 nm) was obtained for 10 seconds before a 100 μl/well agonist or vehicle addition. […] Fluorescence was measured for an additional 2 minutes at 1 second intervals after agonist addition. A final addition of ionomycin (5 μM, final concentration) was made to each well of the FLIPR test plate to establish cell viability and maximum fluorescence of dye-bound cytosolic calcium. […]

Row | Structure (SMILES) | melting point [°C] | IC50 [1] [nM]
1 | Cc1cn(C)c2cc(C(F)(F)F)c(Oc3cnc(N)nc3N)cc12 (as salt: hydrochloride) [Example 63, 5-(1,3-Dimethyl-6-trifluoromethyl-1H-indol-5-yloxy)-pyrimidine-2,4-diamine] | 256 | –
2 | Cc1nc2c(C)cc(Oc3cnc(N)nc3N)c(C(C)C)c2o1 (as salt: hydrochloride) [Example 66, 5-(7-Isopropyl-2,4-dimethyl-benzooxazol-6-yloxy)-pyrimidine-2,4-diamine] | > 300 | –
3 | COc1cc(C)c(Cc2cnc(N)nc2N)cc1OC [5-(4,5-Dimethoxy-2-methyl-benzyl)-pyrimidine-2,4-diamine] | – | > 10000
4 | CC(C)c1cc2c(cc1Oc1cnc(N)nc1N)OCCN2C [Example 58, 5-(6-Isopropyl-4-methyl-3,4-dihydro-2H-benzo[1,4]oxazin-7-yloxy)-pyrimidine-2,4-diamine] | 167.3 to 170.1 | –
5 | COc1cc(C(C)C)c(Oc2cnc(N)nc2N)cc1N1CCN(S(C)(=O)=O)CC1 [Example 61, 5-[2-Isopropyl-5-(4-methanesulfonyl-piperazin-1-yl)-4-methoxy-phenoxy]-pyrimidine-2,4-diamine] | 115 to 117 | –
6 | CCc1c(Oc2cnc(N)nc2N)cc(C)c2sccc12 [Example 62, 5-(4-Ethyl-7-methyl-benzo[b]thiophen-5-yloxy)-pyrimidine-2,4-diamine] | 181 | –
7 | Cc1c(C(=O)O)[nH]c2cc(Oc3cnc(N)nc3N)c(C(C)C)cc12 [Example 64, 6-(2,4-Diamino-pyrimidin-5-yloxy)-5-isopropyl-3-methyl-1H-indole-2-carboxylic acid] | > 300 | –

Further lines, results first:

Row | melting point [°C] | IC50 [1] [nM] | Structure (SMILES)
8 | 111.4 to 116.9 | – | COc1cc(C(C)C)c(Oc2cnc(N[C@H](C)CO)nc2N)cc1Cl (as salt: hydrochloride) [Compound 120, 2-[4-Amino-5-(5-chloro-2-isopropyl-4-methoxy-phenoxy)-pyrimidin-2-ylamino]-(R)-propan-1-ol]
9 | 135 to 138.5 | – | COc1cc(C(C)C)c(Oc2cnc(N)nc2N)cc1-c1ncon1 (as salt: trifluoroacetic acid salt) [Example 57, 5-(2-Isopropyl-4-methoxy-5-[1,2,4]oxadiazol-3-yl-phenoxy)-pyrimidine-2,4-diamine]
10 | 63.5 to 69.4 | – | CNC(=O)OC[C@@H](C)Nc1ncc(Oc2cc(Cl)c(OC)cc2C(C)C)c(N)n1 (stereo in doubt) [Example 7, Methyl-carbamic acid 2-[4-amino-5-(5-chloro-2-isopropyl-4-methoxy-phenoxy)-pyrimidin-2-ylamino]-propyl ester]
11 | – | ~5.01 | CC(C)c1cc(O)c(I)cc1Oc1cnc(N)nc1N [4-(2,4-Diamino-pyrimidin-5-yloxy)-2-iodo-5-isopropyl-phenol]
12 | 253.7 to 254.6 | – | COc1cc(C(C)C)c(Oc2cnc(N)nc2N)cc1-c1ccco1 [Example 59, 5-(5-Furan-2-yl-2-isopropyl-4-methoxy-phenoxy)-pyrimidine-2,4-diamine]
